Measurements reported in patent US20130023002A1, “USE OF A SUBSTRATE IN A METHOD FOR MEASURING THE ACTIVITY OF AVAILABLE PROTEOLYTIC ENZYMES” (priority 2011, published 2013).

Tests used:
[1] = tested on: low-molecular-weight heparin, Fragmine® (anti-Xa activity, factor Xa); experiment: Evaluation of neutralization of low-molecular-weight heparin by enzyme substrates (anti-Xa activity); assay type: biochemical
Excerpt: (§1) Before referring to the diagrams of the figures, the evaluation method used to quantify the neutralizing effect of the proteolytic enzyme substrates with respect to the glycosaminoglycans in a blood sample, and in particular a plasma, will be described. This evaluation method makes it possible to use both unfractionated heparins and low-molecular-weight heparins. In addition, the method endeavors to test the activity of factor Xa, located at the crossroads of two enzymatic cascades resulting in the formation of thrombin. Moreover, antithrombin, which is a natural inhibitor of thrombin generation, controls the reaction. As soon as it appears, factor Xa couples to its natural substrate, prothrombin, so as to form thrombin. The heparin contained in the sample forms, itself, a complex with antithrombin, which complex promotes the inhibition of factor Xa.
Thus, a chromogenic substrate based on para-nitroaniline, which factor Xa hydrolyzes, is used and the release of the para-nitroaniline, which can be measured optically, is then inversely proportional to the concentration of heparin present in the medium. A measurement of the anti-Xa activity is thus deduced therefrom.
More specifically, the percentage neutralization by the substrate is determined as being the ratio of the difference in the variation in anti-Xa activity in the medium containing the physiological saline and in the medium containing the substrate, between two heparin concentrations, and only the variation in activity in the medium containing the physiological saline, between the same two heparin concentrations, this ratio being multiplied by 100 in order to obtain the result as percentage neutralization.
The percentage neutralization can also be written more compactly: 100×(1−ΔA1/ΔA2), wherein ΔA1 corresponds to the variation in activity in the presence of substrate and ΔA2 to the variation in the presence of physiological saline. Thus, the parallel measurement of the variation in the presence of physiological saline makes it possible to establish the reference in each series of measurements.
Still in this first part of the description, the abovementioned evaluation method was implemented with a low-molecular-weight heparin, Fragmine®.
The results of the percentage neutralization of this heparin for the three substrate variants described above, V(1), V(2) and V(3), have been reported in the table below.

[2] = tested on: unfractionated calcium heparin Calciparine® (anti-Xa activity, factor Xa); experiment: Evaluation of neutralization of unfractionated heparin by enzyme substrates (anti-Xa activity, para-nitroaniline chromogenic substrate); assay type: biochemical; conditions: FIG. 1, qualitative
Excerpt: as §1
Thus, a chromogenic substrate based on para-nitroaniline, which factor Xa hydrolyzes, is used and the release of the para-nitroaniline, which can be measured optically, is then inversely proportional to the concentration of heparin present in the medium. […]
In this first example, the heparin used is an unfractionated calcium heparin sold under the brand name: “Calciparine®”. According to the evaluation method, the anti-Xa activity is recorded and transferred onto the y-axis, as a function of the heparin concentration of the medium. […]

percentage neutralization ([1]; Fragmine® 0.42 IU/ml) [%] | percentage neutralization ([1]; Fragmine® 0.83 IU/ml) [%] | percentage neutralization ([1]; Fragmine® 1.25 IU/ml) [%] | percentage neutralization ([1]; Fragmine® 1.67 IU/ml) [%] | Substance | effect of substrate with respect to heparin (curve compared with physiological saline) [2]
10 | 12 | 13 | 15 | EtM-VR-Rhod110-Ac [V(1)] | –
– | – | – | – | Z-GGR-AMC | no notable effect with respect to heparin
